Data from US9085750B2, “Stabilized subtilisin composition” (Novozymes A/S, priority 2011, dated 2015).

Key:
Assay type in all cases: biochemical
[1] = biological target: T1, subtilisin (Savinase 16L) (Lederbergia lenta, UniProt P29600); assay: Remaining protease activity of Savinase 16L after storage in the Table 1 detergent (hydrolysis of N,N-dimethylcasein); settings: one week at 40° C.
T1 construct: purchased Novozymes A/S Savinase 16L
T1 sequence (P29600 1-269): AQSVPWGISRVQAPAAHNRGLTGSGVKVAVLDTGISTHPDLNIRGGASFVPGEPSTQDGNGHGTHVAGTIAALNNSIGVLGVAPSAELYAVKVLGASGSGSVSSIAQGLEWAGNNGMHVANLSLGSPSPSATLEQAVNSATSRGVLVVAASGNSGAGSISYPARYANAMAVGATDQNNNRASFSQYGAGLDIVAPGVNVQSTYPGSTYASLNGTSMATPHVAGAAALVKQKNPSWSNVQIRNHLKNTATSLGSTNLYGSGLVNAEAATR
Method: (§1) General experimental details: Detergents with a subtilisin (Savinase 16L) and a lipase (Lipex 100L) with or without X—B^1—NH—CHR—CHOH—SO3Na (the peptide aldehyde hydrosulfite adduct can be added separately to the detergent containing the subtilisin) are placed in closed glasses at −18° C.; 35° C. and 40° C. Residual activities of protease and lipase are measured after different times using standard analytical methods (protease by hydrolysis of N,N-dimethylcasein at 40° C., pH 8.3 and lipase by hydrolysis of pNp-valerate at 40° C., pH 7.7). Similar trials can be made with addition of subtilisin to a detergent already containing suitable amounts of the peptide aldehyde hydrosulfite adduct. Similar results can be obtained with all the mentioned peptide aldehyde bisulfite adducts.
As an example of detergent composition with a stabilized subtilisin formulation, the composition described in Table 1 was made.
In Table 2 are shown the results obtained with X=Cbz-Gly; B^1=Ala; R═—CH2-p(C6H4)—OH; stability measured after one week incubation at 40° C. in the detergent described in Table 1.

[2] = biological target: T2, Subtilisin: Savinase (Lederbergia lenta, UniProt P29600); assay: Remaining subtilisin activity after storage in the Table 3 detergent; settings: 2 weeks at 35° C.
T2 construct: purchased Novozymes A/S Savinase 16L
T2 sequence (P29600 1-269): T1 sequence (P29600 1-269)
Method: as §1
(§2) As an example of a detergent composition with a stabilized subtilisin formulation, the composition described in Table 3 was made.
(§3) In Table 4 are shown the results measured after two weeks incubation at 35° C. in the detergent described in Table 3.

[3] = system: Lipase: Lipex 100L; assay: Remaining lipase activity after storage with subtilisin in the Table 3 detergent (hydrolysis of pNp-valerate); settings: 2 weeks at 35° C.
Method: as §1, §2, §3

[4] = system: Subtilisin Coronase 48L; assay: Remaining subtilisin activity after storage in the Table 5 detergent, Coronase 48L; settings: 59 ppm inhibitor in detergent of Table 5
Method: as §1
(§4) As yet another example of a detergent with a stabilized subtilisin formulation, the composition described in Table 5 was made.
(§5) In Table 6 are shown the results measured after 4 weeks incubation at 37° C., and after 8 weeks incubation at 30° C., in the detergent described in Table 5.

[5] = system: Subtilisin Liquanase 2.5L; assay: Remaining subtilisin activity after storage in the Table 5 detergent, Liquanase 2.5L; settings: 34 ppm inhibitor in detergent of Table 5
Method: as §1, §4, §5

[6] = system: Lipase: Lipoclean 2000L; assay: Remaining lipase activity after storage with subtilisin in the Table 5 detergent
Method: as §1, §4, §5

| SMILES | Protease stability (remaining activity) ([1]; 7 ppm inhibitor in detergent of Table 1) | Protease stability (remaining activity) ([1]; 14 ppm inhibitor in detergent of Table 1) | Protease stability (remaining activity) ([1]; 18 ppm inhibitor in detergent of Table 1) | Remaining activity of Subtilisin (protease) ([2]; 21 ppm inhibitor in detergent of Table 3) | Remaining activity of Lipase ([3]; 21 ppm inhibitor in detergent of Table 3 with Savinase) | Remaining activity of Subtilisin, 4 weeks at 37° C. [4] | Remaining activity of Subtilisin, 4 weeks at 37° C. [5] | Remaining activity of Lipase, 8 weeks at 30° C. ([6]; with Coronase 48L, 59 ppm inhibitor in detergent of Table 5) | Remaining activity of Lipase, 8 weeks at 30° C. ([6]; with Liquanase 2.5L, 34 ppm inhibitor in detergent of Table 5) | remaining activity at 128 ppm ([2]; 128 ppm inhibitor in detergent of Table 3, read-out: Remaining activity of Subtilisin (protease)) | Remaining activity of Lipase ([3]; 128 ppm inhibitor in detergent of Table 3 with Savinase) |
| --- | --- | --- | --- | --- | --- | --- | --- | --- | --- | --- | --- |
| C[C@H](NC(=O)CNC(=O)OCc1ccccc1)C(=O)N[C@@H](Cc1ccc(O)cc1)C(O)S(=O)(=O)[O-].[Na+] (some centres unmarked) [Cbz-GA-NHCH(CH2C6H4OH)C(OH)(SO3M)-H] | 52% | 77% | 80% | 63% | 18% | 80% | 83% | 61% | 27% | – | – |
| O=Cc1ccc(B(O)O)cc1 [4-formylphenyl boronic acid, reference compound] | – | – | – | – | – | – | – | – | – | 8% | 2% |
